Test results taken from patent US5218115A, “Cholecystokinin antagonists” (Merck & Co., Inc., priority 1992, dated 1993).
Entries after “also recorded” stand apart in the source; their conditions may differ. Where two headings read alike, the source gives them in different places. Square brackets hold non-standard residues; d marks the D form. Peptide text beside a SMILES is read from it. * marks the point of attachment. sY = N[C@@H](Cc1ccc(OS(=O)(=O)O)cc1)C(=O)O; Cbz = O=C(OCc1ccccc1)*; Boc = CC(C)(C)OC(=O)*

Tests used:
CCK receptor (brain) = molecular target: T1, CCK receptor (brain) (Cavia porcellus, UniProt H0VZC5); experiment: CCK Receptor Binding (Brain), inhibition of 125I-CCK-8 binding; design: species or system Male Hartley guinea pigs
T1 construct: the cortex was removed and homogenized in 25 mL ice-cold 0.32M sucrose; from tissue; host or cells: guinea pig brain cortex P2 membranes (male Hartley)
T1 sequence (H0VZC5 1-426): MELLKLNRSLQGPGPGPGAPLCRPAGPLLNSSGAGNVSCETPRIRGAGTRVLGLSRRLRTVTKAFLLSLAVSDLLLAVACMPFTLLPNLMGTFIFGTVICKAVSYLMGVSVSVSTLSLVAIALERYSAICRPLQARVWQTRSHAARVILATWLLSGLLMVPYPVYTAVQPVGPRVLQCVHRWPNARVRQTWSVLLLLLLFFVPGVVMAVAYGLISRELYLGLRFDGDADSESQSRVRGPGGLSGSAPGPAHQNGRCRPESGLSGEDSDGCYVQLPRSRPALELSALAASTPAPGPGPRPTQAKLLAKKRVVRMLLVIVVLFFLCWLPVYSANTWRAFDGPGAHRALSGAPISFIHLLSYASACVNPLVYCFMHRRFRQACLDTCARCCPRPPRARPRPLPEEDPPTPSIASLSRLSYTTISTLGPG
Description: CCK-8 sulphated was radiolabelled and the binding was performed according to the description for the pancreas method with minor modifications.
Male Hartley guinea pigs (300-500 g) were sacrificed by decapitation and the cortex was removed and homogenized in 25 mL ice-cold 0.32M sucrose. The homogenates were centrifuged at 1000 g for 10 minutes and the resulting supernatant was recentrifuged at 20,000 g for 20 minutes. […] All assays were run in duplicate. The reaction mixtures were incubated at 25° C. for 2 hours and then the reaction was terminated on Whatman GF/C filters by rapid filtration (Brandell 24 well cell Harvester) with 3×5 ml washes of cold 100 mM NaCl. The radioactivity on the filters was then counted with a LKB gamma counter.
(§1) Drug displacement studies were performed with at least 10 concentrations of compounds of formula 1 and the IC50 values were determined by regression analysis.

CCK receptor (pancreas) = molecular target: T2, CCK receptor (pancreas) (Rattus norvegicus, UniProt P30551); experiment: CCK Receptor Binding (Pancreas), inhibition of 125I-CCK-8 binding; design: species or system Male Sprague-Dawley rats; details: 125I-CCK-8 50 pM, 25° C., 2 hours
T2 construct: The whole pancreas was dissected free of fat tissue and was homogenized; from tissue; host or cells: rat pancreas membranes (male Sprague-Dawley)
T2 sequence (P30551 1-444): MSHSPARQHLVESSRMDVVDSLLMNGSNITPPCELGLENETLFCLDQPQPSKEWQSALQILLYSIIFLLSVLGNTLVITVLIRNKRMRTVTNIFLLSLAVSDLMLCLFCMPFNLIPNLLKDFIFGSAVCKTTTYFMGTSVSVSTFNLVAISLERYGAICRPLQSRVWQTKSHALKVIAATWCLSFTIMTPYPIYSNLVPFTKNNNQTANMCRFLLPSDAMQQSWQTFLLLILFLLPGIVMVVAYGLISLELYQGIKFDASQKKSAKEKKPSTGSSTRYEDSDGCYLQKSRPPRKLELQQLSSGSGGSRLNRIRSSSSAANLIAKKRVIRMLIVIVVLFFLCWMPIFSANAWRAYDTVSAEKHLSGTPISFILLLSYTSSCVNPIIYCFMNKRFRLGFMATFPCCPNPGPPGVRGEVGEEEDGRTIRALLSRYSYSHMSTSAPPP
Description: CCK-8 sulphated was radiolabelled with ^125 I-Bolton Hunter reagent (2000 Ci/mmole). Receptor binding was performed according to Chang and Lotti (Proc. Natl. Acad. Sci. 83, 4923-4926, 1986) with minor modifications.
Male Sprague-Dawley rats (150-200 g) were sacrificed by decapitation. The whole pancreas was dissected free of fat tissue and was homogenized in 25 volumes of ice-cold 10 mM Hepes buffer with 0.1% soya bean trypsin inhibitor (pH 7.4 at 25° C.) with a Kinematica Polytron. The homogenates were centrifuged at 47,800 g for 10 min. Pellets were resuspended in 10 volumes of binding assay buffer (20 mM Hepes, 1 mM EGTA, 5 mM MgCl2, 150 mM NaCl, bacitracin 0.25 mg/ml, soya bean trypsin inhibitor 0.1 mg/ml, and bovine serum albumin 2 mg/ml, pH 6.5 at 25° C.) using a teflon homogenizer, 15 strokes at 500 rpm. The homogenate was further diluted in binding assay buffer to give a final concentration of 0.5 mg original wet weight/1 ml buffer. […] All assays were run in duplicate. […] The radioactivity on the filters was counted with a LKB gamma counter.
as §1

[1] = molecular target: T3, Gastrin receptor (gastric glands) (Cavia porcellus, UniProt H0VZC5); experiment: Gastrin Receptor Binding in Guinea Pig Gastric Glands, 125I-gastrin; design: species or system guinea pigs, male Hartley; details: 125I-gastrin 0.1 nM, 25° C., 30 minutes, read-out: CCK RECEPTOR BINDING RESULTS IC50, 125I-Gastrin Gastric Glands
T3 construct: from tissue; host or cells: guinea pig gastric mucosal glands (male Hartley)
T3 sequence (H0VZC5 1-426): T1 sequence (H0VZC5 1-426)
Description: Gastrin antagonist activity of compounds of Formula I is determined using the following assay.
A. Gastrin Receptor Binding in Guinea Pig Gastric Glands
Guinea pig gastric mucosal glands were prepared by the procedure of Chang et al., Science 230, 177-179 (1985) with slight modification. Gastric mucosa from guinea pigs (300-500 g body weight, male Hartley) were isolated by scraping with a glass slide after washing stomachs in ice-cold, aerated buffer consisting of the following: 130 mM NaCl, 12 mM NaHCO3, 3 mM NaH2 PO4, 3 mM Na2 HPO4, 3 mM K2 HPO4, 2 mM MgSO4, 1 mM CaCl2, 5 mM glucose and 4 mM L-glutamine, 50 mM HEPES, 0.25 mg/ml bacitracin, 0.10 mg/ml soya bean trypsin inhibitor, 0.1 mg/ml bovine serum albumin, at pH 6.5, and then incubated in a 37° C. shaking water bath for 40 minutes in buffer containing 1 mg/ml collagenase and bubbled with 95% O2 and 5% CO2. The tissues were passed twice through a 5 ml syringe to liberate the gastric glands, and then filtered through Nitex #202 gauge nylon mesh. The filtered glands were centrifuged at 272 g for 5 minutes and washed twice by resuspension in 25 ml buffer and centrifugation.
The washed guinea pig gastric glands prepared as above were resuspended in 25 ml of standard buffer. […] The radioactivity on the filters was measured using a LKB gamma counter.

CCK receptor = details: in words; cited from earlier work
brain CCK (CCK-B) = details: in words; cited from earlier work
gastrin = details: in words, in vitro; cited from earlier work
[2] = guinea pig cortex, 125I-CCK-8 50 pM, 25° C., 2 hours, read-out: CCK RECEPTOR BINDING RESULTS IC50, 125I-CCK Brain

Cc1cccc(NC(=O)NC2N=C(c3ccccc3)c3ccccc3N(Cc3n[nH]c(C)n3)C2=O)c1 (racemic) [Example 4, N-{1,3-Dihydro-1-[5-(2-methyl-1,3,4-triazolo)-methylene]-2-oxo-5-phenyl-1H-1,4-benzodiazepin-3-yl}-N'-{[3-methylphenyl]-urea}]
IC50 (CCK receptor (brain); [2]): 10 nM

Cc1cccc(NC(=O)NC2N=C(c3ccccc3)c3ccccc3N(Cc3ncc[nH]3)C2=O)c1 (stereo not shown) [Example 3, N-{1,3-Dihydro-1-[1H-2-imidazolyl]methyl-2-oxo-5-phenyl-1H-1,4-benzodiazepin-3-yl}-N'-{[3-methylphenyl]-urea}]
IC50 (CCK receptor (pancreas)): 258 nM
IC50 (CCK receptor (brain)): 58.9 nM

Cc1cccc(NC(=O)NC2N=C(c3ccccc3)c3ccccc3N(Cc3c[nH]cn3)C2=O)c1 (stereo not shown) [Example 1, N-{1,3-Dihydro-1-[1H-4-imidazolyl]methyl-2-oxo-5-phenyl-1H-1,4-benzodiazepin-3-yl}-N'-{[3-methylphenyl]-urea}]
IC50 (CCK receptor (pancreas)): 11 nM
IC50 (CCK receptor (brain); [2]): 7.9 nM
IC50 [1]: 3.6 nM

CSCC[C@H](N)C(=O)N[C@@H](CC(=O)O)C(=O)N[C@@H](Cc1ccccc1)C(N)=O [Met-Asp-Phe-NH2] (H-Met-Asp-Phe-NH2)
CCK antagonist activity (CCK receptor): can function as CCK antagonists

Cc1cccc(NC(=O)N[C@@H]2N=C(c3ccccc3)c3ccccc3N(C)C2=O)c1 [(R)-N-(2,3-dihydro-1-methyl-2-oxo-5-phenyl-1H-1,4-benzodiazepin-3-yl)-N^1-(3-methylphenyl) urea]
CCK-B receptor antagonism / selectivity (brain CCK (CCK-B)): potent and selective antagonist of CCK-B receptors

O=C(Nc1cccc(-c2nn[nH]n2)c1)N[C@@H]1N=C(c2ccccc2)c2ccccc2N(CC(=O)N2CCCC2)C1=O [Example 2, N-{3-(R)-1,3-Dihydro-1-(pyrrolidinylcarbonyl)methyl-2-oxo-5-phenyl-1H-1,4-benzodiazepin-3(R)-yl}-N'-{[3-(1H-tetrazol-5-yl)phenyl]urea}]
IC50 (CCK receptor (brain); [2]): 0.12 nM

CSCC[C@H](NC(=O)OC(C)(C)C)C(=O)N[C@@H](CC(=O)O)C(=O)N[C@@H](Cc1ccccc1)C(N)=O [Boc-Met-Asp-Phe-NH2] (Boc-Met-Asp-Phe-NH2)
CCK antagonist activity (CCK receptor): can function as CCK antagonists

CCCN(CCC)C(=O)C(CCC(=O)O)NC(=O)c1ccccc1 (stereo not shown) [proglumide]
gastrin antagonist activity (gastrin): very weak in vitro antagonists

CCCC(=O)Nc1nc2c(ncn2[C@@H]2O[C@@H]3COP(=O)(O)O[C@H]3[C@H]2OC(=O)CCC)c(=O)[nH]1 [dibutyryl cyclic GMP]
CCK antagonist activity (CCK receptor): most potent

CSCC[C@H](NC(=O)[C@H](Cc1ccc(OS(=O)(=O)O)cc1)NC(=O)OCc1ccccc1)C(=O)NCC(=O)N[C@@H](Cc1c[nH]c2ccccc12)C(=O)N[C@@H](CCSC)C(=O)N[C@@H](CC(=O)O)C(N)=O [Cbz-Tyr(SO3 H)-Met-Gly-Trp-Met-Asp-NH2] (Cbz-[sY]MGWMD-NH2)
CCK antagonist activity (CCK receptor): can function as CCK antagonists; also recorded: partial agonist
